# Legend:
# [1] = 14C gemcitabine bladder perfusion vs IV bolus, blood/urine/tissue content; assay type: in vivo, male Sprague Dawley rats
# Method: A study was conducted on male Sprague Dawley rats administering ^14C gemcitabine by intra-urinary bladder cannula, over a 6- or 24-hour continuous perfusion, or by a single IV bolus. The 6- and 24-hour continuous perfusions perfused 6.9 and 26.6 mg, respectively, of gemcitabine into the bladder. The single IV bolus included 5.0 mg of gemcitabine. Blood (FIG. 8), urine, and tissue samples (e.g., bladder, prostate) (FIGS. 7 and 9) were collected and analyzed for gemcitabine content. The results are illustrated in FIGS. 7-9. […] The gemcitabine levels observed for each of the bladder epithelium, lamina propria, muscularis, and adventitia are shown in FIG. 14, which also illustrates a target effective range for the gemcitabine tissue concentration.
# [2] = Gemcitabine release systems vs intravesical instillation in hounds; assay type: in vivo, large mixed breed hounds; details: intravesical instillation mimicking standard clinical doses
# Method: Two gemcitabine release systems (devices as shown in FIGS. 1A-1B) designed to release therapeutic levels (4 mg/day and 40 mg/day) into the urine were screened. The devices used either laser-drilled orifices or punched orifices for release of the gemcitabine. The systems tested were compared to intravesical instillations which were designed to mimic the standard intravesical doses used clinically. The test animals were large mixed breed hounds, with N=3 for each group.
# In vivo, one system yielded very low urine and tissue concentrations but was well tolerated by the test animal. The other system produced target urine concentration levels but was poorly tolerated by the test animal. Urine profiles were also variable and the duration of drug release was unacceptably short.
# [3] = minipig, in vivo
# Method: Varying concentrations of gemcitabine were perfused into pigs for 7 days, N=5 (2 males and 3 females per treatment group). The perfusion animals were dosed at concentrations selected to bracket the target doses for bladder cancer in humans. For comparison, a gemcitabine releasing device (as shown in FIGS. 1A-1B) with large bore end caps (restraining plugs with a large aperture therethrough for drug release) with an intermediate in vitro release rate was deployed in a separate group of animals.
compound,measurement,setting,value
"Nc1ccn([C@@H]2O[C@H](CO)[C@@H](O)C2(F)F)c(=O)n1 [gemcitabine, 2′,2′-difluorodeoxycytidine]",gemcitabine levels in bladder tissue,"[1]; 6- or 24-hour continuous bladder perfusion, sustained urine concentrations",at or exceed therapeutic concentrations
same,concentration of gemcitabine in the bladder,"[1]; 24 hours after a clinically relevant IV dose, compared with perfusion",significantly lower concentration
same,plasma/systemic exposure,[1]; continuous delivery by intravesical administration,without significant plasma/systemic exposure
same,urothelial lesions,[2],significant urothelial lesions
same,tolerability,[3],tolerated gemcitabine well

# — US12582599B2, “Methods for treatment of bladder cancer with gemcitabine” (TARIS Biomedical LLC, priority 2014, dated 2026)
